From patent publication US7659270B2, “Hepatitis C virus inhibitors” (Bristol-Myers Squibb Company, priority 2006, dated 2010)
Read-outs that look alike come from different tables or passages of the source.

Test system: HCV 1b-377-neo replicon cells
Assay: HCV replicon assay (HCV 1b-377-neo replicon cells)
Format: cell-based, Hepatitis C virus genotype 1b
Design: EC50 range against HCV 1b (Range): scale not given here
Settings: for EC50: read-out: EC50 range against HCV 1b (Range)
Protocol: An HCV Replion assay was utilized in the present disclosure, and was prepared, conducted and validated as described in commonly owned PCT/US2006/022197 and in O'Boyle et. al. Antimicrob Agents Chemother. April 2005;49(4): 1346-53.
HCV 1b-377-neo replicon cells were used to test the currently described compound series as well as cells resistant to compound A due to a Y2065H mutation in NS5A (described in application PCT/US2006/022197). The compounds tested were determined to have more than 10-fold less inhibitory activity on cells resistant to compound A than wild-type cells indicating a related mechanism of action between the two compound series. Thus, the compounds of the present disclosure can be effective to inhibit the function of the HCV NS5A protein and are understood to be as effective in combinations as previously described in application PCT/US2006/022197 and commonly owned WO/04014852. Further, the compounds of the present disclosure can be effective against the HCV 1b genotype. It should also be understood that the compounds of the present disclosure can inhibit multiple genotypes of HCV. […] In one embodiment compounds of the present disclosure are active against the 1a, 1b, 2a, 2b, 3a, 4a, and 5a genotypes.

COC(=O)N[C@H](C(=O)N1CCC[C@H]1c1ncc(-c2ccc(-c3ccc(-c4cnc([C@@H]5CCCN5C(=O)[C@@H](NC(=O)OC)C(C)C)[nH]4)cc3C(N)=O)cc2)[nH]1)C(C)C [Example M118, methyl((1S)-1-(((2S)-2-(5-(2′-carbamoyl-4′-(2-((2S)-1-((2S)-2-((methoxycarbonyl)amino)-3-methylbutanoyl)-2-pyrrolidinyl)-1H-imidazol-5-yl)-4-biphenylyl)-1H-imidazol-2-yl)-1-pyrrolidinyl)carbonyl)-2-methylpropyl)carbamate]
EC50 range against HCV 1b (Range): >A

COC(=O)N[C@H](C(=O)N1CCC[C@H]1c1ncc(-c2cnc(-c3ccc(-c4cnc([C@@H]5CCCN5C(=O)[C@@H](NC(=O)OC)C(C)C)[nH]4)c(F)c3)nc2)[nH]1)C(C)C [Example D68, methyl ((1S)-1-(((2S)-2-(5-(2-fluoro-4-(5-(2-((2S)-1-((2S)-2-((methoxy-carbonyl)a-mino)-3-methyl-butanoyl)-2-pyrroli-dinyl)-1H-imida-zol-5-yl)-2-pyrimi-dinyl)phenyl)-1H-imida-zol-2-yl)-1-pyrroli-dinyl)carbo-nyl)-2-methylpro-pyl)carbamate]
EC50: 0.01 to 0.999 nM

CCN(CC)[C@@H](C(=O)N1CCC[C@H]1c1ncc(-c2cnc(-c3ccc(-c4[nH]c([C@@H]5CCCN5C(=O)[C@@H](c5ccccc5)N(CC)CC)nc4C(F)(F)F)cc3)nc2)[nH]1)c1ccccc1 [Example J47, (1R)-2-((2S)-2-(5-(4-(5-(2-((2S)-1-((2R)-2-(diethylamino)-2-phenylacetyl)-2-pyrrolidinyl)-1H-imidazol-5-yl)-2-pyrimi-dinyl)phenyl)-4-(trifluoromethyl)-1H-imida-zol-2-yl)-1-pyrrolidinyl)-N,N-dieth-yl-2-oxo-1-phenylethanamine]
EC50 (Hepatitis C virus): 0.01 to 0.999 nM

COC(=O)N[C@@H](C(=O)N1CCC[C@H]1c1ncc(-c2ccc(-c3ccc(-c4cnc([C@@H]5CCCN5C(=O)[C@H](NC(=O)OC)c5ccccc5)[nH]4)cn3)nc2)[nH]1)c1ccccc1 [Example 145, dimethyl(2,2′-bipyridine-5,5′-diylbis(1H-imidazole-5,2-diyl(2S)-2,1-pyrrolidinediyl((1R)-2-oxo-1-phenyl-2,1-ethanediyl)))biscarbamate]
EC50 (Hepatitis C virus): 0.01 to 0.999 nM

COC(=O)N[C@@H](C(=O)N(C)[C@@H](C)c1ncc(-c2ccc(-c3ccc(-c4cnc([C@H](C)N(C)C(=O)[C@H](NC(=O)OC)c5ccccc5)[nH]4)cc3)cc2)[nH]1)c1ccccc1 [Example 24-18-1, dimethyl (4,4′-biphenyl-diylbis(1H-imidazole-5,2-diyl(1S)-1,1-ethane-diyl(methyli-mino)(1R)-2-oxo-1-phenyl-2,1-ethane-diyl)))biscar-bamate]
EC50 (Hepatitis C virus): 0.01 to 0.999 nM

COC(=O)N[C@@H](C(=O)N1CCC[C@H]1c1ncc(-c2ccc(-c3ccc(-c4cnc([C@@H]5CCCN5C(=O)[C@H](NC(=O)OC)c5ccccc5)[nH]4)nn3)cc2)[nH]1)c1ccccc1 [Example 152j-10, methyl ((1R)-2-((2S)-2-(5-(6-(4-(2-((2S)-1-((2R)-2-((methoxycarbonyl)a-mino)-2-phenylacetyl)-2-pyrrolidinyl)-1H-imidazol-5-yl)phenyl)-3-pyridazinyl)-1H-imidazol-2-yl)-1-pyrrolidinyl)-2-oxo-1-phenylethyl) carba-mate]
EC50 (Hepatitis C virus): 1 to 99 nM

COC(=O)N[C@H](C(=O)N1[C@H](c2ncc(-c3ccc(-c4ccc(-c5cnc([C@@H]6C[C@@H]7C[C@@H]7N6C(=O)[C@@H](NC(=O)OC)C(C)C)[nH]5)cc4)cc3)[nH]2)C[C@@H]2C[C@@H]21)C(C)C [Example M122, methyl((1S)-1-(((1S,3S,5S)-3-(5-(4′-(2-((1S,3S,5S)-2-((2S)-2-((methoxycarbonyl)amino)-3-methylbutanoyl)-2-azabicyclo[3.1.0]hex-3-yl)-1H-imidazol-5-yl)-4-biphenylyl)-1H-imidazol-2-yl)-2-azabicyclo[3.1.0]hex-2-yl)carbonyl)-2-methylpropyl)carbamate]
EC50 (Hepatitis C virus): 1 to 99 nM
